In patent publication US20230071014A1 (priority 2020, published 2023):

What was measured:
SARS-CoV = settings: cited from earlier work; for Inhibitory activity against SARS-CoV: Thorax 2004, 59: 252-256
HIV-1 isolates = settings: low passage clinical isolates, n=13; cited from earlier work
SARS-CoV-2 = assay: Ritonavir reducing viral nucleic acid load in SARS-CoV-2 infected Vero E6 cells (qRT-PCR); assay type: cell-based, SARS-CoV-2 (nCoV-2019BetaCoV/Wuhan/WIV04/2019 strain); settings: for Copy number of virus genome: Vero E6 cells, supernatant, vehicle 5762396
Description: (1) Drug Treatment of Virus-Infected Cells
Vero E6 cells (purchased from ATCC, Catalog No. 1586) was inoculated on a 24-well plate, cultured for 24 hours; then virus infection was carried out. Specifically, SARS-CoV-2 (2019-nCoV) virus (nCoV-2019BetaCoV/Wuhan/WIV04/2019 strain, provided by Wuhan Institute of Virology, Chinese Academy of Sciences) was diluted with 2% cell maintenance solution (formulation: FBS (purchased from Gibco company, Catalog No. 16000044) was added to MEM (purchased from Gibco, Catalog No. 10370021) at a volume ratio of 2%, thereby obtaining the 2% cell maintenance solution) to a corresponding concentration, and then added to a 24-well plate so that each well contained a viral load of 100TCID50. […] To the vehicle control group, the 2% cell maintenance solution without any test drugs was added.
RNA extraction kit was purchased from Qiagen Company, Catalog No. 74106. The consumables (spin columns, RNase-free 2 ml collection tubes, etc.) and reagents (RLT, RW1, RPE, RNase-free water, etc.) involved in the following RNA extraction steps were part of the kit. The following extraction steps were recommended steps in the kit instruction.
1) 100 μL of the supernatant was taken from the tested plate and added to a nuclease-free EP tube, then 350 μL of Buffer RLT was added to each well and mixed by beating with a transfer liquid gun until complete lysis was achieved, then centrifugation was carried out to obtain a supernatant;
2) an equal volume of 70% ethanol was added to the supernatant obtained in 1) and mixed well;
3) the mixture solution obtained in 2) was transferred to a RNase-free spin column, and centrifuged at 12000 rpm for 15 seconds, and the waste liquid was discarded;
4) 700 μL of Buffer RW1 was added to the spin column, and centrifuged at 12000 rpm for 15 seconds to clean the spin column, and the waste liquid was discarded;
5) 500 μL of Buffer RPE was added to the spin column, and centrifuged at 12000 rpm for 15 seconds to clean the spin column, and the waste liquid was discarded;
6) 500 μL of Buffer RPE was added to the spin column, and centrifuged at 12000 rpm for 2 min to clean the spin column, the waste was discarded;
7) a new RNase-free 2 ml collection tube was used for replacement, centrifugation was carried out at 12000 rpm for 1 min, the spin column was dried, and then the spin column was transferred to a 1.5 ml collection tube in step 8);
8) a new 1.5 ml collection tube was used for replacement, in which the spin column dried in step 7) was placed, and […] of RNase-free water was added to the spin column, and centrifugation was carried out at 12000 rpm for 2 minutes, the obtained eluate contained the corresponding RNA, then the RNase inhibitor (purchased from NEB company, Catalog No. […]) was added, and Nano Drop (purchased from Thermo scientific, Nano Drop One) was used to detect each RNA concentration.
(3) RNA Reverse Transcription
In the experiment, the reverse transcription kit (PrimeScript™ RT reagent Kit with gDNA Eraser, Catalog No. RRO47Q) produced by TaKaRa was used for RNA reverse transcription.
The steps were as follows.
(1) Removal of gDNA: RNA samples of each experimental group were collected, 1 μg of each sample was taken for reverse transcription. First, 2 μl of 5×gDNA Eraser Buffer was added to the RNA sample of each experimental group, the reaction system was supplemented with RNase-free water to reach 10 μl, mixed well, and subjected to water bath at 42° C. for 2 min to remove the gDNA that might be present in the sample;
(2) Reverse transcription: Appropriate amounts of enzyme, primer Mix and reaction buffer were added to the sample obtained in […], RNase-free water was added to supplement to reach a volume of 20 μl, the reaction was performed in a water bath at 37° C. for 15 minutes, and then in water bath at 85° C. for 5 seconds, to obtain cDNA by transcription. […]

Cc1cccc(C)c1OCC(=O)N[C@@H](Cc1ccccc1)[C@@H](O)C[C@H](Cc1ccccc1)NC(=O)[C@H](C(C)C)N1CCCNC1=O [lopinavir]
Inhibitory activity against SARS-CoV (SARS-CoV): inhibits SARS-CoV

CC(C)c1nc(CN(C)C(=O)N[C@H](C(=O)N[C@@H](Cc2ccccc2)C[C@H](O)[C@H](Cc2ccccc2)NC(=O)OCc2cncs2)C(C)C)cs1 [ritonavir, [5S-(5R,8R,10R,11R)]-10-hydroxy-2-methyl-5-(1-methylethyl)-1-[2-(1-methylethyl)-4-thiazolyl]-3,6-dioxo-8,11-bis(phenylmethyl)-2,4,7,12-tetraazatridecan-13-oic acid, 5-thiazolyl methyl ester]
EC50 (HIV-1 isolates): 0.022 µM | Effectiveness against SARS-CoV (SARS-CoV; Biochemical and Biophysical Research Communications 318 (2004) 719-725): ineffective | Inhibitory activity against SARS-CoV (SARS-CoV): does not have inhibitory activity | Copy number of virus genome (SARS-CoV-2; 0.14 μM, 48 hours after infection): 6032699 | Copy number of virus genome (SARS-CoV-2; 0.41 μM, 48 hours after infection): 5632446 | Copy number of virus genome (SARS-CoV-2; 1.23 μM, 48 hours after infection): 5565821 | Copy number of virus genome (SARS-CoV-2; 3.70 μM, 48 hours after infection): 6213595 | Copy number of virus genome (SARS-CoV-2; 11.11 μM, 48 hours after infection): 2236225 | Copy number of virus genome (SARS-CoV-2; 33.33 μM, 48 hours after infection): 1855399 | Reduction of viral RNA load in Vero E6 cells infected by SARS-CoV-2 (SARS-CoV-2; 48 hours after infection, FIG. 1): inhibitory activity is dose-dependent | Inhibition of the replication of SARS-CoV-2 virus genome in the infected supernatant (SARS-CoV-2; at concentrations of 33 μM, 11.1 μM): could effectively inhibit
